# Laboratory results taken from US11731934B2, “HDAC inhibitor compounds and methods of treatment” (University of Florida Research Foundation, Inc., priority 2014, dated 2023).
# What was measured:
# HCT116 cells [1] = test: Western blotting of acetylated histones; format: cell-based; settings: for Inhibition of cellular HDACs (H4K5ac, H3K18ac): HCT116, 0.5 μM, 24 h (FIG. 1B); for Accumulation of acetylated histones: HCT116, 1 h, TSA 0.2 μM, others 2 μM (FIG. 1A)
# HepG2 cells = test: Viability assay, with or without HDAC shRNA; format: cell-based; settings: HepG2, 96 h (FIG. 4A)
# HCT116 cells [2] = test: H3K18ac after 6 h pulse treatment and drug washout; format: cell-based; settings: 6 h exposure then washout
# [3] = tested on: Ad-MLP-Luc reporter in HCT116 cell line; test: Ad-MLP-Luc luciferase reporter activation assay; format: cell-based; settings: HCT116, compared to Ad-E2-Luc reporter
# [4] = 50 mg/kg dosed orally, ref (4); cited from earlier work
# HCT116 and A549 cells = test: Western blotting of acetylated non-histone proteins; format: cell-based; settings: for α-tubulin acetylation: 1 h, TSA 0.2 μM, UF010 2 μM
# HDAC1 = HDAC1 (Homo sapiens (Human), UniProt Q13547); test: In vitro HDAC1 inhibition assay of HTS hits (HDAC/II-Glo reagents); format: biochemical
# [5] = Cell-based assays, comparison with entinostat
# Source text: Chem Biol. 2015: in press.].
# MDA-MB-231 cells [6] = settings: UF010 at 1 μM
# MDA-MB-231 cells [7] = test: Microarray gene expression profiling with Ingenuity Pathway Analysis; format: cell-based; settings: 1 μM, 24 h
# [8] = tested on: NCI-60 panel of cancer cell lines; test: NCI-60 panel screen; format: cell-based
# MDA-MB-231 cells [9] = test: Cell cycle analysis by FACS; format: cell-based; settings: 24 h, dose-dependent
# MDA-MB-231 cells [10] = test: Quantitative real-time PCR of CDKN1A (p21); format: cell-based
# Chain of HDAC1 (Q13547 whole entry): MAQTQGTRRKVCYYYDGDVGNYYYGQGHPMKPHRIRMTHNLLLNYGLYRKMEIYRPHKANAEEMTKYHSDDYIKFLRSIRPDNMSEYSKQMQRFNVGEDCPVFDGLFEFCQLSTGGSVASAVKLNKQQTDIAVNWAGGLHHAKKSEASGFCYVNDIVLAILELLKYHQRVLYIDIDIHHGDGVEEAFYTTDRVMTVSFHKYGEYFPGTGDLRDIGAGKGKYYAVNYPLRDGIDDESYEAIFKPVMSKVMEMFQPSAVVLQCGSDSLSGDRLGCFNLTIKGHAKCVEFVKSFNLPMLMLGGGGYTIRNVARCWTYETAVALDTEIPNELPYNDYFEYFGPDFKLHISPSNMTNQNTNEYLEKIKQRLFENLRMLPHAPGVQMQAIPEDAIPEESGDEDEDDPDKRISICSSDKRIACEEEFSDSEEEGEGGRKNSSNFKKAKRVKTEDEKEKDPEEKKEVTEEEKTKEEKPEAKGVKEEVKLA
structure (smiles),measurement,setting,value
"CCCCNNC(=O)c1ccc(N(C)C)cc1 [RLS2-131, N′-butyl-4-(dimethylamino)benzohydrazide]","Inhibition of cellular HDACs (H4K5ac, H3K18ac)",HCT116 cells [1],consistently displayed potent inhibition of cellular HDACs
"CCCCNNC(=O)c1ccccc1 [RLS2-125, N′-butylbenzohydrazide]",Growth inhibition for HepG2,HepG2 cells,little to no growth inhibition
"Nc1ccccc1NC(=O)c1ccc(CNC(=O)OCc2cccnc2)cc1 [MS-275, entinostat]",Accumulation of acetylated histones,HCT116 cells [1],only slightly induced acetylation at several sites but failed to induce acetylation at most sites
same,Persistence of induced histone acetylation (H3K18ac) after drug addition,HCT116 cells [2],at least 48 h
same,Time to induction of histone acetylation (H3K18ac),HCT116 cells [2],18 h
"C/C=C1\NC(=O)[C@H]2CSSCC/C=C/[C@H](CC(=O)N[C@H](C(C)C)C(=O)N2)OC(=O)[C@H](C(C)C)NC1=O [Romidepsin, romidepsin]",Persistence of induced histone acetylation (H3K18ac) after drug addition,HCT116 cells [2],up to 24 h
same,Time to induction of histone acetylation (H3K18ac),HCT116 cells [2],quickly induced acetylation
same,Ad-MLP-Luc reporter activity,[3],dramatically increased in a dose-dependent manner
Nc1ccccc1NC(=O)CCCCCC(=O)Nc1ccccc1 [Compound 4b],Tmax,[4],15 min
"CC(/C=C/C(=O)NO)=C\[C@@H](C)C(=O)c1ccc(N(C)C)cc1 [TSA, Trichostatin A, reference compound]",Accumulation of acetylated histones,HCT116 cells [1],strongly induced acetylation at some sites but weakly at other sites
same,α-tubulin acetylation,HCT116 and A549 cells,dramatically increased α-tubulin acetylation
"O=C(CCCCCCC(=O)Nc1ccccc1)NO [SAHA, vorinostat, reference compound]","HDAC1 inhibition in vitro, potency",HDAC1,< 10 µM
"CCCCNNC(=O)c1ccc(Br)cc1 [UF010, 4-bromo-N′-butylbenzohydrazide]","Inhibition of cellular HDACs (H4K5ac, H3K18ac)",HCT116 cells [1],consistently displayed potent inhibition of cellular HDACs
same,Accumulation of acetylated histones,HCT116 cells [1],consistently induced the accumulation of acetylated histones at all sites examined
same,Potency relative to entinostat in cell-based assays,[5],about 5 fold
same,Cell migration to the denuded areas,MDA-MB-231 cells [6],markedly slowed migration
same,Mode of HDAC inhibition (on/off),HCT116 cells [2],fast-on but slow-off inhibitor
same,Persistence of induced histone acetylation (H3K18ac) after drug addition,HCT116 cells [2],up to 96 h
same,Time to induction of histone acetylation (H3K18ac),HCT116 cells [2],≤ 6 h
same,"Predicated activation state, Biological Functions: Cell cycle, Cell cycle progression",MDA-MB-231 cells [7],Suppressed
same,"Predicated activation state, Biological Functions: Cell death and survival, Apoptosis",MDA-MB-231 cells [7],Activated
same,"Predicated activation state, Biological Functions: Cell death and survival, Cell survival",MDA-MB-231 cells [7],Suppressed
same,"Predicated activation state, Biological Functions: Cell death and survival, Necrosis",MDA-MB-231 cells [7],Activated
same,"Predicated activation state, Biological Functions: Cell growth and proliferation, Proliferation of cells",MDA-MB-231 cells [7],Suppressed
same,"Predicated activation state, Biological Functions: DNA replication, recombination and repair, Repair of DNA",MDA-MB-231 cells [7],Suppressed
same,"Predicated activation state, Biological Functions: Gene expression, Transcription of RNA",MDA-MB-231 cells [7],Suppressed
same,"Predicated activation state, Upstream Regulators: Butyric acid",MDA-MB-231 cells [7],Activated
same,"Predicated activation state, Upstream Regulators: Cisplatin",MDA-MB-231 cells [7],Activated
same,"Predicated activation state, Upstream Regulators: ERK1/2",MDA-MB-231 cells [7],Activated
same,"Predicated activation state, Upstream Regulators: HDAC1",MDA-MB-231 cells [7],Suppressed
same,"Predicated activation state, Upstream Regulators: HDAC2",MDA-MB-231 cells [7],Suppressed
same,"Predicated activation state, Upstream Regulators: KRAS",MDA-MB-231 cells [7],Suppressed
same,"Predicated activation state, Upstream Regulators: MYCN",MDA-MB-231 cells [7],Suppressed
same,"Predicated activation state, Upstream Regulators: Myc",MDA-MB-231 cells [7],Suppressed
same,"Predicated activation state, Upstream Regulators: Rb1",MDA-MB-231 cells [7],Activated
same,"Predicated activation state, Upstream Regulators: Romidepsin",MDA-MB-231 cells [7],Activated
same,"Predicated activation state, Upstream Regulators: TP53",MDA-MB-231 cells [7],Activated
same,"Predicated activation state, Upstream Regulators: Tributyrin (butyrate)",MDA-MB-231 cells [7],Activated
same,"Predicated activation state, Upstream Regulators: Trichostatin A",MDA-MB-231 cells [7],Activated
same,"Predicated activation state, Upstream Regulators: fulvestrant",MDA-MB-231 cells [7],Activated
same,"Inhibition of proliferation, NCI-60 panel",[8],inhibited proliferation of all tested cell lines
same,"HDAC1 inhibition in vitro, potency",HDAC1,< 10 µM
same,Cell cycle effect,MDA-MB-231 cells [9],mainly blocked G1/S transition
same,Accumulation of acetylated p53,"HCT116 and A549 cells; 2 μM, after exposure to etoposide 10 μM",induced accumulation of acetylated p53
same,p53 stabilization,"HCT116 and A549 cells; 2 μM, with or without etoposide treatment",notably stabilized p53
same,α-tubulin acetylation,HCT116 and A549 cells,little to no effect
same,CDKN1A (p21) expression by qPCR,MDA-MB-231 cells [10],activation of CDKNA encoding p21 was also confirmed
